Assay results published in patent publication EP4647428A1, “COMPOUND CONTAINING 2-METHYL-2-(3-(PIPERIDIN-3-YL)PHENOXY)-2-METHYLPROPANAMIDE SKELETON” (Jiangsu Mingsheng Jutai Biotechnology Co. Ltd, priority 2023, dated 2024).
pIC50, pKd: −log10 of the molar value.

How the values were obtained:
SW480 = assay: CCK8 cell inhibition test on SW480 cells; type: cell-based; conditions: Homo sapiens; CCK-8, SW480 cells, 24 hours incubation at 37°C, compound 20 µM to 0.15625 µM in DMEM (2% FBS)
Experimental: Cells were digested, counted, and plated in a 96-well plate (flat-bottomed, transparent) with 10,000 cells/100 µl DMEM (10% FBS) per well . • 2. Observe the cell status on the next day and start adding drugs after the cells have fully adhered to the wall; • 3. Dilute the compound in DMEM (2% FBS) in a serial dilution format to concentrations of 20 µM, 10 µM, 5 µM, 2.5 µM, 1.25 µM, 0.625 µM, 0.3125 µM, 0.15625 µM, and 0 µM (with equal volume of DMSO). • 4. Add 100 µl of the above compounds at different concentrations to each well. Repeat for each concentration gradient in duplicate. Leave three blank wells (add only DMEM 2% FBS culture medium without cells) . • 5. Incubate at 37°C for 24 hours . • 6. Add 10 µl of CCK-8 Enhanced Solution to each well. Since the amount of CCK-8 added to each well is relatively small, there may be errors due to the reagent sticking to the well wall. It is recommended to gently tap the culture plate after adding the reagent to help mix it. • 7. Incubate in the incubator for 0.5-4 hours: The amount of formazan formed varies depending on the cell type. In most cases, incubation for 1 hour is sufficient. If color development is insufficient, continue incubation to confirm optimal conditions. • 8. Measure the absorbance at 450nm and 600nm (excluding interference from the reagent background color and the absorbance of the well plate itself); • 9. The final absorbance value is OD450nm-OD600nm, and the inhibition rate is calculated; Inhibition rate = [(Ac−As)/(Ac−Ab)] × 100% [formula] • As: absorbance of the experimental well (culture medium containing cells, CCK-8, and drug to be tested); • Ac: absorbance of control wells (culture medium containing cells, CCK-8, and no test drug); • Ab: absorbance of blank wells (culture medium without cells, test drugs, or CCK-8).

β-catenin = target: T1, β-catenin (Homo sapiens, UniProt P35222); assay: SRP test (Biacore T200, affinity fitting KD to coupled ligand β-catenin); type: binding; conditions: Biacore T200, CM5 chip, 25°C, HEPES pH 7.4
T1 sequence (P35222 1-781): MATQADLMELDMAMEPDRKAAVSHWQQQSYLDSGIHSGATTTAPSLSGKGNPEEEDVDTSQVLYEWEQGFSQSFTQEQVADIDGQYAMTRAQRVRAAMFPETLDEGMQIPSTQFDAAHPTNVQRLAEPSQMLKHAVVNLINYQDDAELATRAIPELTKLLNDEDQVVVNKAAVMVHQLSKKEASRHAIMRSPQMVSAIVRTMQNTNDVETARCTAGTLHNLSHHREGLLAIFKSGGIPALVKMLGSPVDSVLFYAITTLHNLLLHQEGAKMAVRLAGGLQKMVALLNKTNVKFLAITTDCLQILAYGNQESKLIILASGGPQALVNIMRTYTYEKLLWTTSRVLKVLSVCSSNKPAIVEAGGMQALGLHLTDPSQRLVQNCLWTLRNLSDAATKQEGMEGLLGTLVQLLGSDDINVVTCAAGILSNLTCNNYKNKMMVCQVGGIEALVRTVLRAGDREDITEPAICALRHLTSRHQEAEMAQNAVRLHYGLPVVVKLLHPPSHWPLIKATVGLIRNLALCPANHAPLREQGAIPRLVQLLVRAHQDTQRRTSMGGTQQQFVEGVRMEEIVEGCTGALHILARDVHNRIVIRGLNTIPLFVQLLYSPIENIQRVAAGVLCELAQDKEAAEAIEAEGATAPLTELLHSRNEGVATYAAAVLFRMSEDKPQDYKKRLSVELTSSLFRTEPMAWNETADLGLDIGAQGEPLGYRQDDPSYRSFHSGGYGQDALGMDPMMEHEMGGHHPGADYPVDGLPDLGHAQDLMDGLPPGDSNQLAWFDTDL
Experimental: • 1. The analyte is in powder form. • 2. The temperature is 25°C. • 3. The analytical equipment used was Biacore T200 instrument.
• 1. Ligand β-catenin was diluted with HEPES (pH 7.4) to 0.5 mg/mL • 2. The analyte was dissolved in DMSO and diluted with 0.1% DMSO HEPES (pH 7.4)
3. Experimental Procedure
• 1. Start the Biacore T200 instrument according to standard operating procedures. • 2. Prepare 500 ml of HEPES buffer (pH 7.4) and deionized water (filtered through a 0.22 µm membrane) for rinsing the injection needle. • 3. Start installing the chip and install the CM5 chip according to the standard process. • 4. Prepare to start the formal experiment. The buffer solution will flush the flow system inside the entire system at a high flow rate. • 5. Choose the appropriate procedure based on the sample size. • 6. Start the capture chip. Prepare a sufficient volume of ligand β-catenin, EDC/NHS, and blocking buffer. Initiate the coupling procedure with a 7-minute coupling time and a flow rate of 10 µl/min. The final ligand coupling volume is approximately 16,000 RU. • 7. After the coupling is completed, start the sample detection and set the analyte binding time to 120 s. • The flow rate was 30 µL/min; the dissociation time was 200 s, the flow rate was 30 µL/min; the regeneration time was 30 s, • The flow rate was 30 µL/min. • 8. […]

| pIC50 (SW480) | pKd (β-catenin) | SMILES |
| --- | --- | --- |
| 5.45 | 6.55 | CC(C)c1ccc(-c2cccc(S(=O)(=O)N3CCCC(c4cccc(OC(C)(C)C(=O)NCC(=O)N5CCC[C@H]5CN)c4)C3)c2)cc1 (stereo partly shown) [Compound 115-010] |
| > 5.53 | 6.12 | CC(C)c1ccc(-c2cccc(S(=O)(=O)N3CCCC(c4cccc(OC(C)(C)C(=O)NCC(=O)N5CC[C@@H](CN)C5)c4)C3)c2)cc1 (stereo partly shown) [Compound 115-012] |
